Where two headings read alike, the source gives them in different places.
Experiments:
[1] = system: P. falciparum 3D7 asexual blood stages; assay: Whole-cell time extended asexual growth assay (pLDH); type: cell-based; conditions: Plasmodium falciparum; for inhibition at 2 µM: primary screen, read-out: %Inh Asex stages @2uM
Procedure: Asexual activity was assayed via Plasmodium lactate dehydrogenase activity (pLDH), a surrogate of asexual parasite growth. […] 2 µM artesunate and DMSO were used as the positive and negative controls, respectively. […] After plate mixing, NBT reduction was measured by absorbance at 650 nm using Envision (Perkin Elmer).

[2] = system: P. falciparum stage V female gametocytes (female gamete formation); assay: P. falciparum dual gamete formation assay (Pf DGFA), female readout (Pfs25 expression), 48 h carry-over format; type: cell-based, Plasmodium falciparum NF54; conditions: Plasmodium falciparum; for inhibition at 2 µM: primary screen, single replicate
[3] = biological target: T1, recombinant luciferase (Photinus pyralis) (Photinus pyralis, UniProt P08659); assay: Recombinant luciferase inhibition assay; type: biochemical
T1 construct: purchased Promega E1701
Procedure: A counter-screen to the P. berghei liver stage assay was run against recombinant luciferase (Photinus pyralis) to measure the intrinsic bioluminescence inhibition from select compounds. Briefly, compounds were plated in 12-point serial dose response (50–2.82 × 10^−4 µM) in 1536-well opaque-bottom plates (789173-F, Greiner Bio-One). A 20 pM QuantiLum® Recombinant Luciferase (E1701, Promega) containing solution was made in screening media (DMEM, 11965–092, Invitrogen; 5% FBS, 35–011-CV, Corning; 5x Pen Strep Glutamine, 10378–016, Invitrogen), and 8 µl were added to each well. After 1 h incubation at room temperature, 2 µl of Bright-Glo™ (E2610, Promega) were dispensed per well, and bioluminescence was immediately measured using the EnVision microplate reader (PerkinElmer). DMSO (0.5%) and Luciferase Inhibitor-2 (9.8 µM) (119114, MilliporeSigma) served as negative and positive controls, respectively.

[4] = system: P. berghei strain CTRPpGFP early mosquito stage (ookinete) development; assay: P. berghei ookinete development assay (Pb ODA); type: cell-based, Plasmodium berghei; conditions: for IC50: Plasmodium berghei, 24h incubation
Procedure: All mouse procedures were performed in accordance with the UK Animals (Scientific Procedures) Act (PPL 70/7185) and approved by the Imperial College Animal Welfare and Ethical Review Body (AWERB). The ability of test compounds to inhibit P. berghei early mosquito stage development was tested in the Ookinete Development Assay[37] with a few exceptions. Anaesthetised 6- to 8-week-old female Tucks Ordinary (TO) mice infected with P. berghei strain CTRPpGFP[38] were rapidly exsanguinated by cardiac puncture and 500 µl of blood diluted in 25 ml of ookinete medium supplemented with 20% foetal bovine serum. Immediately the blood/medium mixture was dispensed by multichannel pipette into 384 well plates containing pre-plated test compounds. 10 µM cycloheximide and DMSO were used as the positive and negative controls, respectively. Plates were stored in the dark in a humidified incubator at 18 °C for 24 h. Ookinete production was imaged by fluorescence microscopy of GFP expression under the ookinete-specific CTRP promoter using a Nikon Ti-E widefield microscope and ×10 objective. Ookinete production was quantified using ICY and percentage inhibition calculated as above with reference to positive and negative controls.

[5] = system: Stage IV–V 3D7 gametocytes; assay: Gametocytocidal ATP-based bioluminescence assay (GC-ATP); type: cell-based, Plasmodium falciparum 3D7; conditions: for IC50: Plasmodium falciparum, 3D7, 48h incubation, read-out: Pf late stage gametocyte (ATP depletion) IC50
Procedure: The metabolic viability of late stage gametocytes was determined using a gametocyte ATP bioluminescence assay. Stage IV–V 3D7 gametocyte cultures were double-purified by density gradient sedimentation over NycoPrep® followed by magnetic isolation. Then, parasites (50 µl per well containing 12,500 gametocytes) were added to compound pre-dispensed 384-well plates (781091, Greiner) and incubated at 37 °C for 48 h under 5% CO2/3% O2/92% N2. BacTiter-Glo® kit (G8231, Promega) was used to determine the ATP levels of viable parasites according to manufacturer’s instructions. After reagent addition (50 µl per well), luminescence of the plates was measured using a microplate reader (HTS counter Victor, Wallac).

[6] = profiling / reconfirmation, read-out: Pf asexual IC50
[7] = BPCA vs GHCDL stock of DDD599, adjusted for correct molecular weight, read-out: Pf DGFA female IC50
[8] = 72h incubation, read-out: Pf Asexual IC50
[9] = dose response retest, 72 h, read-out: IC50 (µM) Asex stages
[10] = 1h incubation, read-out: Recombinant luciferase assay IC50
[11] = 24h preincubation/carry-over, read-out: Pf DGFA Female IC50
[12] = 48 h, dose response retest of primary hits, 48 h incubation, read-out: Female IC50
[13] = 48h preincubation/carry-over, read-out: Pf DGFA Female IC50
[14] = SAR, Fig. 7, read-out: Female IC50

T1 sequence (P08659 whole entry): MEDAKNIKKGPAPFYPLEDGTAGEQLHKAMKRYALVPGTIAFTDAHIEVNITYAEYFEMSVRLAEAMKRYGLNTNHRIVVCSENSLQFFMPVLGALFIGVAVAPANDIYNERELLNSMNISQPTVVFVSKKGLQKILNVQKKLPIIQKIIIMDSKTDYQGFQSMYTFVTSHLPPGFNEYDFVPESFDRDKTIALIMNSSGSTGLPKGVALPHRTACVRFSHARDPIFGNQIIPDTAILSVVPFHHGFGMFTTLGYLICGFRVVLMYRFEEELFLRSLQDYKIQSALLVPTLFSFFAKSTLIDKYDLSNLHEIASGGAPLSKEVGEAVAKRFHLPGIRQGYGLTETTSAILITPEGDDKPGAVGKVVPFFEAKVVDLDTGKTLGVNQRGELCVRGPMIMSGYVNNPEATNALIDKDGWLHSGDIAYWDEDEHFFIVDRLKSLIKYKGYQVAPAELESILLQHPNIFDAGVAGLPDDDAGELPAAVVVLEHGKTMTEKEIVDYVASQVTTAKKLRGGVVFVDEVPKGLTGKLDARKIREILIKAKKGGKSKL

Row | SMILES | IC50 [1, 6] [µM] | IC50 [2, 7] [µM] | IC50 [1, 8] [µM] | IC50 ([1]; compound resynthesised at GSK, read-out: IC50 against asexuals) [µM] | IC50 [1, 9] [µM] | inhibition at 2 µM ([1]; 72 h) [%] | IC50 [3, 10] [µM] | IC50 [2, 11] [µM] | IC50 ([2]; compound resynthesised at GSK, read-out: IC50 against female gametocytes) [µM] | IC50 [4] [µM] | IC50 [5] [µM] | IC50 [2, 12] [µM] | IC50 [2, 13] [µM] | IC50 [2, 14] [µM] | inhibition at 2 µM ([2]; 48 h incubation) [%] | activity in P. berghei ookinete development assay ([4]; profiling) | IC50 [3] [µM] | IC50 ([3]; read-out: Recombinant luciferase IC50) [µM] | activity in the GC-ATP assay ([5]; profiling)
1 | O=C(CCl)Nc1ccc(Br)cc1 [BPCA, N-(4-bromophenyl)-2-chloroacetamide] | 0.8 | 11 |  |  |  |  |  |  |  |  |  |  |  |  |  |  |  |  | 
2 | CC(=O)c1c(C)nn(CC(=O)Nc2ccc(Br)cc2)c1C [DDD01027599] | 0.8 | 3.43 | 0.64 | > 50 | 1.02 | 80.5 | > 50 | > 12.5 | > 50 | > 12.5 | 1.61 |  |  |  |  |  |  |  | 
3 | O=S(=O)(NCC1(O)CCOc2ccccc21)c1ccccc1F (stereo not drawn) [DDD01028073] |  |  | > 20 |  |  |  | > 50 | > 12.5 |  | 0.3 | > 10 | > 10 | > 12.5 | > 12.5 | < 30 |  |  |  | 
4 | Cc1ccc(S(=O)(=O)NCC2(O)CCOc3ccccc32)s1 (stereo not drawn) [DDD01028074] |  |  | > 20 |  |  |  | > 50 | > 12.5 |  | 0.29 | > 10 | > 10 | > 12.5 | > 12.5 | < 30 |  |  |  | 
5 | O=S(=O)(NCC1(O)CCOc2ccccc21)c1ccc(Cl)s1 (stereo not drawn) [DDD01028075] |  |  | > 20 |  |  |  | > 50 | > 12.5 |  | 0.34 | > 10 | > 10 | > 12.5 | > 12.5 | < 30 |  |  |  | 
6 | O=S(=O)(NCC1(O)CCOc2ccccc21)c1ccccc1Br (stereo not drawn) [DDD01028076] |  |  | > 20 |  |  |  | > 50 | > 12.5 |  | 0.22 | > 10 | > 10 | > 12.5 | > 12.5 | < 30 |  |  |  | 
7 | COc1cccc(-n2ccc3nc(N4CCCC4)ncc3c2=O)c1 [DDD01034957] |  |  | 0.17 |  | 0.72 | 58.1 | 6.7 | > 12.5 |  | > 12.5 | > 10 |  | > 12.5 |  |  |  |  |  | 
8 | O=S(=O)(NCC1(O)CCOc2ccccc21)c1cccs1 (stereo not drawn) [DDD01035879] |  |  | > 20 |  |  |  | > 50 | > 12.5 |  | 0.29 | > 10 | > 10 | > 12.5 | > 12.5 | < 30 |  |  |  | 
9 | O=S(=O)(NCC1(O)CCOc2ccccc21)c1ccc(Br)s1 (stereo not drawn) [DDD01035881] |  |  | 17.5 |  |  |  | > 50 | > 12.5 |  | 0.11 | > 10 | > 10 | > 12.5 | > 12.5 | < 30 |  |  |  | 
10 | Cc1cccc(NC(=O)c2cccc(OCc3nnnn3C)c2)n1 [DDD01038630] |  |  | 1.13 |  | 0.963 | 84.5 | > 50 | > 12.5 |  | > 12.5 | > 10 |  | > 12.5 |  |  |  |  |  | 
11 | CC(c1ccco1)N(C(=O)CNc1ccc(C#N)cc1)C1CC1 (stereo not drawn) [DDD01062645] |  |  | > 20 |  |  |  | > 50 | > 12.5 |  | > 12.5 | > 10 | > 10 | > 12.5 |  | < 30 | inactive |  |  | 
12 | Cc1ccc(CN(c2cc(C)nc3nc(C(F)(F)F)nn23)C2CC2)cc1 [DDD01063654] |  |  | 0.33 |  | 0.324 | 73.2 | > 50 | > 12.5 |  | > 12.5 | > 10 |  | > 12.5 |  |  |  |  |  | 
13 | Cc1cc(C)c(CNCC(O)c2ccc(F)c(F)c2)c(C)c1.Cl (stereo not drawn) [DDD01065539] |  |  | 0.17 |  | 0.396 | 91.4 |  | > 12.5 |  | > 12.5 | > 10 |  | > 12.5 |  |  |  | > 50 |  | 
14 | CC(NCC1CCN(CCO)CC1)c1ccc(OC(F)(F)F)cc1 (stereo not drawn) [DDD01073716] |  |  | 10.8 |  |  |  | > 50 | > 12.5 |  | > 25 | > 10 | > 10 | 4.12 |  | < 30 |  |  |  | 
15 | CN(Cc1cccc(F)c1)C(=O)CS(=O)(=O)Cc1c(Cl)cccc1Cl [DDD01077188] |  |  | 0.63 |  | 0.764 | 74.2 | > 50 | > 12.5 |  | > 12.5 | > 10 |  | > 12.5 |  |  |  |  |  | 
16 | CN1CCC(NCC(O)c2cccc(OCc3ccccc3)c2)CC1 (stereo not drawn) [DDD01079164] |  |  | 7.53 |  |  |  | > 50 | > 12.5 |  | > 25 | 6.29 | > 10 | 3.12 |  | < 30 |  |  |  | 
17 | CNc1cc(C)nc(NC2CCCN(C3Cc4ccccc4C3)C2)n1 (stereo not drawn) [DDD01243506] | 0.66 |  |  |  | 1.07 | 97.1 | > 50 | > 12.5 |  | > 12.5 | > 10 |  | > 12.5 |  |  |  |  | ≥ 50 | 
18 | OC1(CN2CCC(Oc3cccc(C(F)(F)F)c3)CC2)CCNC1 (stereo not drawn) [DDD01245291] |  |  | 6.66 |  |  |  | > 50 | > 25 |  | > 25 | > 10 | 5.78 | 4.13 |  | < 30 |  |  |  | 
19 | CC(c1cccs1)N(C)Cc1cnc(-c2ccccn2)nc1 (stereo not drawn) [DDD01246628] |  |  | 4.75 |  |  |  | 4.28 | > 25 |  | > 25 | 2.31 | 5.32 | > 25 |  | 41.9 |  |  |  | 
20 | CC(C)CN1CCn2nc(CNc3ncnc4[nH]ccc34)cc2C1 [DDD01249504] |  |  | > 20 |  |  |  | > 50 | > 25 |  | > 25 | > 10 | > 10 | > 25 |  | < 30 |  |  |  | 
21 | CCCn1nccc1C(=O)N1CCN(C2CCc3ccccc3C2)CC1 (stereo not drawn) [DDD01251134] |  |  | 1.01 |  | 0.969 | 58.4 | > 50 | > 12.5 |  | > 12.5 | > 10 |  | > 12.5 |  |  |  |  |  | 
22 | Cc1nn(C)c(Oc2ccc(Cl)cc2)c1CN1CCC(CN)C1 (stereo not drawn) [DDD01254274] |  |  | > 20 |  |  |  | > 50 | > 25 |  | > 25 | 6.86 | > 10 | > 25 |  | < 30 |  |  |  | 
23 | CCc1ccc(C2c3nc[nH]c3CCN2Cc2nccn2CC)nc1 (stereo not drawn) [DDD01254473] |  |  | > 20 |  |  |  | > 50 | > 25 |  | > 12.5 | 0.53 | 2.79 | 0.167 |  | 30.5 |  |  |  | submicromolar
24 | CCOc1ccc2ccccc2c1CNCC1CCNCC1.Cl.Cl [DDD01255740] |  |  | 3.56 |  |  |  | > 50 | > 25 |  | > 12.5 | > 10 | > 10 | 1.88 |  | < 30 |  |  |  | 

Source: PMC6143625, “A high throughput screen for next-generation leads targeting malaria parasite transmission” (Nature Communications, 2018)
